Measurements published in patent US20120316169A1, “2-ARYL-PROPIONAMIDE DERIVATIVES USEFUL AS BRADYKININ RECEPTOR ANTAGONISTS AND PHARMACEUTICAL COMPOSITIONS CONTAINING THEM” (DOMPÉ S.P.A., priority 2009, published 2012).

Target: T1, BKB1 receptors (Homo sapiens, UniProt P46663)
T1 construct: Human (IMR-90) lung fibroblast cells expressing native B1 receptors; endogenous in cells; host or cells: IMR-90 human lung fibroblasts, interleukin-treated to up-regulate BKB1 receptors
T1 sequence (P46663 1-353): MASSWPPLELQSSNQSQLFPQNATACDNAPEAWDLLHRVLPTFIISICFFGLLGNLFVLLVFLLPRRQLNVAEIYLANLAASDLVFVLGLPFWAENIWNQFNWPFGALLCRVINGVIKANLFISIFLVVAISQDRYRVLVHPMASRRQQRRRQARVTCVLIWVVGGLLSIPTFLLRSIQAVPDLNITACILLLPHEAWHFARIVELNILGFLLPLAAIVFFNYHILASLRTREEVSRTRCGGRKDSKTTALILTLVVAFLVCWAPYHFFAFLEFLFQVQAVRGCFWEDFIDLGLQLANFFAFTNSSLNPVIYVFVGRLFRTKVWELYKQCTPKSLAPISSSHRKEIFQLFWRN
Assay: Calcium mobilization assay (FLIPR), B1 receptors in IMR-90 cells
Assay type: cell-based
Details: Human IMR-90 lung fibroblast cells, up-regulated BKB1 receptors, agonist desArg10-kallidin (DAKD) 2 to 8 nM, calcium-dependent fluorescence
Procedure: Calcium mobilization assay (FLIPR)—Human (IMR-90) lung fibroblast cells expressing native B1 receptors were harvested by trypsinization and seeded into black wall/clear bottom 96-well plates (Costar 3904; Corning Life Sciences, Acton, Mass.) at approximately 13,000 cells/well. After 1 day incubation, cells were treated with […] (0.35 ng/ml) in 10% FBS/MEM for 2 h to up-regulate BKB1 receptors. Induced cells were loaded with fluorescent calcium indicator by incubation with 2.3 μM Fluo-4/acetoxymethyl ester (Invitrogen) at 37° C. for 1.5 h in the presence of an anion transport inhibitor (2.5 mM probenecid in 1% FBS/MEM). Extracellular dye was removed by washing with assay buffer (2.5 mM probenecid, 0.1% BSA in 20 mM HEPES/HBSS without bicarbonate or phenol red, pH 7.5) and cell plates were kept in the dark until used. Test compounds were assayed at eight concentrations in triplicate. Addition of test compounds to the cell plate and incubation for 5 min at 35° C., followed by the addition of 2 to 8 nM final BK1 agonist desArg^10-kallidin (DAKD, 3×EC50) was carried out in the fluorimetric imaging plate reader (FLIPR; Molecular Devices) while continuously monitoring calcium-dependent fluorescence.

Row | IC50 [µM] | SMILES
1 | 12.6 | CC(C)Cc1ccc(C(C)C(=O)Nc2cc[n+](C)cn2)cc1 (centres unmarked) [Compound 39, 1-methyl-4-({2-[4-(2-methylpropyl)phenyl]propanoyl}amino)pyrimidin-1-ium iodide]
2 | 7.76 | COc1cccc(Nc2ccc(C(C)C(=O)NC3CCN(Cc4ccccc4)CC3)cc2)c1 (centres unmarked) [Compound 9, 2-{4-[(3-methoxyphenyl)amino]phenyl}-N-(1-benzylpiperidin-4-yl)propanamide]
